Data reported in ChEMBL document CHEMBL3593181, “Design and synthesis of benzothiazole-6-sulfonamides acting as highly potent inhibitors of carbonic anhydrase isoforms I, II, IX and XII” (Bioorg Med Chem, 2015).

Target: Carbonic anhydrase 9 (Homo sapiens, UniProt Q16790)
Test: Inhibition of human carbonic anhydrase 9 by stopped flow CO2 hydration method

Row | Ki [nM] | Compound
1 | 253 | Nc1cc(=O)[nH]c(SCC(=O)Nc2nc3ccc(S(N)(=O)=O)cc3s2)n1
2 | 282 | NS(=O)(=O)c1ccc2nc(NC(=O)CSc3nc(O)cc(=O)[nH]3)sc2c1
3 | 172 | Nc1nc(SCC(=O)Nc2nc3ccc(S(N)(=O)=O)cc3s2)nc2[nH]ncc12
4 | 244 | Nn1c(Cc2ccccc2)nnc1SCC(=O)Nc1nc2ccc(S(N)(=O)=O)cc2s1
5 | 135 | Nn1c(COc2ccc(Cl)cc2Cl)nnc1SCC(=O)Nc1nc2ccc(S(N)(=O)=O)cc2s1
6 | 4.8 | NS(=O)(=O)c1ccc(NCC(=O)Nc2nc3ccc(S(N)(=O)=O)cc3s2)cc1
7 | 276 | N#Cc1cnn(CC(=O)Nc2nc3ccc(S(N)(=O)=O)cc3s2)c1N
8 | 295 | CSc1nn(CC(=O)Nc2nc3ccc(S(N)(=O)=O)cc3s2)c(N)c1C#N
9 | 2.8 | Nc1ncnc2c1cnn2CC(=O)Nc1nc2ccc(S(N)(=O)=O)cc2s1
10 | 4.1 | NS(=O)(=O)c1ccc2nc(NC(=O)Cn3ncc4c(=O)[nH]cnc43)sc2c1
11 | 4.3 | CSc1nn(CC(=O)Nc2nc3ccc(S(N)(=O)=O)cc3s2)c2nc[nH]c(=O)c12
12 | 2.8 | N#Cc1cnn(CC(=O)Nc2nc3ccc(S(N)(=O)=O)cc3s2)c1NC(=S)Nc1ccccc1
13 | 3.9 | CSc1nn(CC(=O)Nc2nc3ccc(S(N)(=O)=O)cc3s2)c(NC(=S)Nc2ccccc2)c1C#N
14 | 2.6 | NS(=O)(=O)c1ccc2nc(NC(=S)N3CCN(C(=S)Nc4nc5ccc(S(N)(=O)=O)cc5s4)CC3)sc2c1
15 | 2.5 | CS/C(=N\c1nc2ccc(S(N)(=O)=O)cc2s1)NCCN/C(=N/c1nc2ccc(S(N)(=O)=O)cc2s1)SC
16 | 2.3 | CS/C(=N\c1nc2ccc(S(N)(=O)=O)cc2s1)N1CCN(/C(=N/c2nc3ccc(S(N)(=O)=O)cc3s2)SC)CC1

Row | Compound | Ki [nM]
17 | Cc1ccc(OCc2nnc(SCC(=O)Nc3nc4ccc(S(N)(=O)=O)cc4s3)n2N)cc1Cl | 67.3
18 | CSc1nn(CC(=O)Nc2nc3ccc(S(N)(=O)=O)cc3s2)c2ncnc(N)c12 | 2.7
19 | NS(=O)(=O)c1ccc2nc(NC(=S)NCCNC(=S)Nc3nc4ccc(S(N)(=O)=O)cc4s3)sc2c1 | 2.1
